Usually IC50 stands for the concentration that inhibits the measured activity by half.

The values that follow come from patent publication US20230113037A1 (Bayer Aktiengesellschaft, priority 2019, published 2023).

Assay [1] has as its target T1, AHR (Homo sapiens, UniProt P35869).
T1 construct: U87 MG glioblastoma cells (ATCC #HTB-14) endogenously expressing AHR; endogenous in cells; host or cells: U87 MG glioblastoma cells (ATCC #HTB-14)
T1 sequence (P35869 11-848): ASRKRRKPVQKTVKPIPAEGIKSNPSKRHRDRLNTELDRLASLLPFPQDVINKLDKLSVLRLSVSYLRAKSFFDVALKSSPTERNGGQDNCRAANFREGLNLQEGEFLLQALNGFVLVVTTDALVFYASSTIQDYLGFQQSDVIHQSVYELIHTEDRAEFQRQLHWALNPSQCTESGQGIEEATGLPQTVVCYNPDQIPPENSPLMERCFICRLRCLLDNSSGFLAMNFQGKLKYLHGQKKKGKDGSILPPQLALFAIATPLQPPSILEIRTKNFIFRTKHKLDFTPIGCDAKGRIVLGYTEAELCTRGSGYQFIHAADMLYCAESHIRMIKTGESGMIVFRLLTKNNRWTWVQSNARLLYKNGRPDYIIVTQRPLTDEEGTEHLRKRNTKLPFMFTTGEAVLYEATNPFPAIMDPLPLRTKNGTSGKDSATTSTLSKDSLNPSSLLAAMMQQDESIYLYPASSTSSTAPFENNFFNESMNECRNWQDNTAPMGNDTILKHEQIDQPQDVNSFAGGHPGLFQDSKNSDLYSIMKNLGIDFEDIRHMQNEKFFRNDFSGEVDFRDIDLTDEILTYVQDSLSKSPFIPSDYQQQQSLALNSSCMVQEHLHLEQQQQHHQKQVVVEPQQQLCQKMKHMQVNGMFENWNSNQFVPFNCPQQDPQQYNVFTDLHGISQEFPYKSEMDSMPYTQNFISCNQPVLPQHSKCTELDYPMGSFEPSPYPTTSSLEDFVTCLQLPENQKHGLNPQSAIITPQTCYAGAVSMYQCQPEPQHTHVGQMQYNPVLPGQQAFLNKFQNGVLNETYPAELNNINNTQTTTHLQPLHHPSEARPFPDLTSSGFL
Nature of the assay: In vitro assay 1: antagonism in human cell line (AHR transactivation, firefly luciferase reporter, kynurenic acid prestimulated). Format: cell-based. The conditions noted are these: AHR Antagonism Human IC50 [M]. The method, boiled down:
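U87 MG + DRE-firefly/constitutive-Renilla stable reporters; kynurenic acid prestim; dual-luc read; Renilla = tox; normalized vs pos/neg controls (pos: 150 μM KYNA + 5 μM staurosporine).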
(In a reporter assay the amount or activity of a reporter protein is the signal.)

The target in assay [2] is T2, AHR (Mus musculus, UniProt P30561).
T2 sequence (P30561 1-848 P471L/N533S/M589L): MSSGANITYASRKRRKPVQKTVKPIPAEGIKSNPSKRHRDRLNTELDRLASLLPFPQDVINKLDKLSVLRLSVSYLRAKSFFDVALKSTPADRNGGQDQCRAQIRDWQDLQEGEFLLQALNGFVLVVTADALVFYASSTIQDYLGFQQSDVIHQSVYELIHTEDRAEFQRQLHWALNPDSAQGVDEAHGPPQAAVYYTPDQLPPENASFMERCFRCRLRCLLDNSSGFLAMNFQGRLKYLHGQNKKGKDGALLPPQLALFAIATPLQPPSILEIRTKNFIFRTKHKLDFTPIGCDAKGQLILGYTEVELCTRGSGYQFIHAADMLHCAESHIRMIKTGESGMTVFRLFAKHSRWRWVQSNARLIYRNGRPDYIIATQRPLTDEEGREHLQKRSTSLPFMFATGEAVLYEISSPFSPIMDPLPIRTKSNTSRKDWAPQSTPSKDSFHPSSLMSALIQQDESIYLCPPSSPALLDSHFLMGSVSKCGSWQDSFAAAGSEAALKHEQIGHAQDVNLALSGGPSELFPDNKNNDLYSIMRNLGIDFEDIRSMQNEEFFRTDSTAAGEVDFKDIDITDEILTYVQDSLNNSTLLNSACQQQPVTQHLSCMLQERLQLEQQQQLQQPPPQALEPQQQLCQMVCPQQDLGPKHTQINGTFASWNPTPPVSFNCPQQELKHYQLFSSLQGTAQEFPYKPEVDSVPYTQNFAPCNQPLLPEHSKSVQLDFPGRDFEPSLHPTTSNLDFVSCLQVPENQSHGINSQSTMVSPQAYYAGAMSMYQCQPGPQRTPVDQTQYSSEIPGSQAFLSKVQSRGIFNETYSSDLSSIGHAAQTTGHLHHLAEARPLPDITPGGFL
Kind of assay: In vitro assay 3: antagonism in mouse cell line (AHR transactivation, firefly luciferase reporter, kynurenic acid prestimulated). The conditions noted are these: 200 μM kynurenic acid, 20 hours, read-out: AHR Antagonism Mouse IC50. Format: cell-based. A digest of the protocol:
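Cells were first stimulated with kynurenic acid, then exposed to test compound, after which firefly luciferase from a DRE-containing AHR reporter was read out. Signal was scaled between positive and negative controls. Cells not given kynurenic acid provided the inhibition reference.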

The mark [3] stands for this setting: Hepa 1c1c7 cells, firefly luciferase reporter.

Each structure is given as a SMILES string. Several values for one entry are separate records, joined by “and”; a condition that tells them apart may be missing. Equal values may be shown once. Read-outs that look alike come from different tables or passages of the source.

As to `O=C1NCCNCC1Nc1nc2cccc(C3CC3)c2c2nc(-c3cccc(F)c3)nn12` (stereo not shown) [Example 295, 6-{[10-cyclopropyl-2-(3-fluorophenyl)[1,2,4]triazolo[1,5-c]quinazolin-5-yl]amino}-1,4-diazepan-5-one], the IC50 on AHR [1] is over 2e-05 M; at AHR [2] (mouse Hepa 1c1c7 cells), 2910 nM.
For `N#Cc1cccc(-c2nc3c4ccccc4nc(N[C@@H]4CCNC4=O)n3n2)c1` [Example 383, 3-(5-{[(3R)-2-oxopyrrolidin-3-yl]amino}[1,2,4]triazolo[1,5-c]quinazolin-2-yl)benzonitrile] the same measures were 1.39e-07 M and 388 nM.
Regarding `COCc1cccc2c1nc(N[C@@H]1CCCCNC1=O)n1nc(-c3ccc(OC)cc3)nc21` [Example 1003, (3R)-3-{[7-(methoxymethyl)-2-(4-methoxyphenyl)[1,2,4]triazolo[1,5-c]quinazolin-5-yl]amino}azepan-2-one], the figures for the IC50 at AHR [1] (firefly luciferase reporter) and at AHR [2] (setting [3]) were 9.15e-10 M and 4.06 nM, respectively.
For `CN(C)c1cccc(-c2nc3c4ccccc4nc(N[C@@H]4CCCCNC4=O)n3n2)c1` [Example 446, (3R)-3-({2-[3-(dimethylamino)phenyl][1,2,4]triazolo[1,5-c]quinazolin-5-yl}amino)azepan-2-one], the IC50 at AHR [1] came out at 2.92e-09 M; at AHR [2] (mouse Hepa 1c1c7 cells), 0.51 nM.
For `CCCNC(=O)[C@@H](C)Nc1nc2c(Br)cccc2c2nc(-c3ccc(Cl)cc3OC(F)F)nn12` [Example 692, N^2-{7-bromo-2-[4-chloro-2-(difluoromethoxy)phenyl][1,2,4]triazolo[1,5-c]quinazolin-5-yl}-N-propyl-D-alaninamide], the IC50 was 6.79e-10 M against AHR [1] and 0.308 nM at AHR [2] (mouse Hepa 1c1c7 cells).
On to `CCC[C@@H](Nc1nc2ccccc2c2nc(-c3ccncc3F)nn12)C(=O)NC` [Example 486, N^2-[2-(3-fluoropyridin-4-yl)[1,2,4]triazolo[1,5-c]quinazolin-5-yl]-N-methyl-D-norvalinamide], for which the IC50 against AHR [1] turned out to be 3.34e-07 M; at AHR [2] (mouse Hepa 1c1c7 cells) it was 184 nM.
With `N#Cc1cccc(-c2nc3c4ccccc4nc(N[C@@H]4CCCCNC4=O)n3n2)c1` [Example 381, 3-(5-{[(3R)-2-oxoazepan-3-yl]amino}[1,2,4]triazolo[1,5-c]quinazolin-2-yl)benzonitrile], the IC50 against AHR [1] came out at 1.02e-08 M; on AHR [2] (mouse Hepa 1c1c7 cells) it was 1.51 nM.
Turning to `O=C1NCCCC[C@H]1Nc1nc2ccccc2c2nc(-c3cccc(OC(F)(F)F)c3)nn12` [Example 309, (3R)-3-({2-[3-(Trifluoromethoxy)phenyl][1,2,4]triazolo[1,5-c]quinazolin-5-yl}amino)azepan-2-one], the IC50 against AHR [1] was 2.47e-08 M; on AHR [2] (mouse Hepa 1c1c7 cells), 1.97 nM.
For `N#Cc1cccc2nc(N[C@@H]3CCCCNC3=O)n3nc(-c4ccc(F)cc4)nc3c12` [Example 248, 2-(4-fluorophenyl)-5-{[(3R)-2-oxoazepan-3-yl]amino}[1,2,4]triazolo[1,5-c]quinazoline-10-carbonitrile] the same measures were 5.71e-09 M and 1.82 nM.
`N#Cc1ccc(-c2nc3c4cccc(Br)c4nc(N[C@H]4CCCCNC4=O)n3n2)cc1` [Example 559, 4-(7-bromo-5-{[(3S)-2-oxoazepan-3-yl]amino}[1,2,4]triazolo[1,5-c]quinazolin-2-yl)benzonitrile]: the values for the IC50 against AHR [1] and on AHR [2] (mouse Hepa 1c1c7 cells) were 5.14e-09 M and 10.4 nM, respectively.
Turning to `CC[C@H](Nc1nc2c(Br)cccc2c2nc(-c3ccc(C#N)cc3)nn12)C(N)=O` [Example 564, (2S)-2-{[7-bromo-2-(4-cyanophenyl)[1,2,4]triazolo[1,5-c]quinazolin-5-yl]amino}butanamide], the IC50 at AHR [1] worked out at 1.23e-08 M; at AHR [2] (mouse Hepa 1c1c7 cells), 17.5 nM.
Take `O=C1NCCCC[C@@H]1Nc1nc2ccccc2c2nc(-c3ccccc3OC(F)F)nn12` [Example 471, (3S)-3-({2-[2-(difluoromethoxy)phenyl][1,2,4]triazolo[1,5-c]quinazolin-5-yl}amino)azepan-2-one]: the values for the concentration for half-maximal inhibition (IC50) at AHR [1] and on AHR [2] (mouse Hepa 1c1c7 cells) were 5.6e-08 M and 5.26 nM, respectively.
Turning to `CC(C)n1cc(-c2nc3c4ccccc4nc(N[C@@H]4CCCCNC4=O)n3n2)cn1` [Example 195, (3R)-3-({2-[1-(propan-2-yl)-1H-pyrazol-4-yl][1,2,4]triazolo[1,5-c]quinazolin-5-yl]amino)azepan-2-one], the results for the IC50 against AHR [1] and at AHR [2] (mouse Hepa 1c1c7 cells) were 3.06e-09 M and 2.55 nM, respectively.
With `COC(=O)[C@H](Nc1nc2c(Br)cccc2c2nc(-c3cnn(C)c3)nn12)C(C)C` [Example 868, methyl N-[7-bromo-2-(1-methyl-1H-pyrazol-4-yl)[1,2,4]triazolo[1,5-c]quinazolin-5-yl]-D-valinate], the figures for the IC50 against AHR [1] (firefly luciferase reporter) and at AHR [2] (setting [3]) were 6.28e-09 M and 6.29 nM, respectively.
Turning to `CCNC(=O)C(CC)Nc1nc2ccccc2c2nc(-c3ccccc3OC(F)(F)F)nn12` (stereo not shown) [Example 463, N-ethyl-2-({2-[2-(trifluoromethoxy)phenyl][1,2,4]triazolo[1,5-c]quinazolin-5-yl}amino)butanamide], the values for the concentration for half-maximal inhibition (IC50) on AHR [1] and at AHR [2] (mouse Hepa 1c1c7 cells) were 2.94e-08 M and 1.88 nM, respectively.
On to `CNCCNC(=O)[C@@H](C)Nc1nc2c(Br)cccc2c2nc(-c3ccc(OC)cc3)nn12` [Example 987, N^2-[7-bromo-2-(4-methoxyphenyl)[1,2,4]triazolo[1,5-c]quinazolin-5-yl]-N-[2-(methylamino)ethyl]-D-alaninamide-hydrogen chloride (1/1)], for which the IC50 against AHR [1] (firefly luciferase reporter) came out at 8.61e-09 M; at AHR [2] (setting [3]), 13.2 nM.
For `COc1cccc(-c2nc3c4ccccc4nc(N[C@H](C)C(N)=O)n3n2)c1` [Example 92, N^2-[2-(3-methoxyphenyl)[1,2,4]triazolo[1,5-c]quinazolin-5-yl]-D-alaninamide], the values for the 50% inhibitory concentration (IC50) on AHR [1] and at AHR [2] (mouse Hepa 1c1c7 cells) were 8.63e-09 M and 4.38 nM, respectively.
Consider `C[C@@H](Nc1nc2c(C(F)(F)F)cccc2c2nc(-c3cnn(C)c3)nn12)C(=O)N1CCN(C)CC1` [Example 875, (2R)-1-(4-methylpiperazin-1-yl)-2-{[2-(1-methyl-1H-pyrazol-4-yl)-7-(trifluoromethyl)[1,2,4]triazolo[1,5-c]quinazolin-5-yl]amino}propan-1-one], for which the half-maximal inhibitory concentration (IC50) on AHR [1] (firefly luciferase reporter) was determined as 1.69e-08 M; at AHR [2] (setting [3]), 31.5 nM.
As to `Cn1cc(-c2nc3c4cccc(C(F)(F)F)c4nc(NC4C(=O)NCC4(C)C)n3n2)cn1` (racemic) [Example 728, (+/−)-4,4-dimethyl-3-{[2-(1-methyl-1H-pyrazol-4-yl)-7-(trifluoromethyl)[1,2,4]triazolo[1,5-c]quinazolin-5-yl]amino}pyrrolidin-2-one], the IC50 was over 2e-05 M against AHR [1] and 446 nM on AHR [2] (mouse Hepa 1c1c7 cells).
Take `Cn1cc(-c2nc3c4ccccc4nc(NC4CNCCNC4=O)n3n2)cn1` (single isomer, unassigned) [Example 23, 6-{[2-(1-methyl-1H-pyrazol-4-yl)[1,2,4]triazolo[1,5-c]quinazolin-5-yl]amino}-1,4-diazepan-5-one]: the half-maximal inhibitory concentration (IC50) is > 2e-05 M and 1.65e-05 M against AHR [1]; 3380 nM at AHR [2] (mouse Hepa 1c1c7 cells).
